Article PMC11879040, “Advancing systemic toxicity risk assessment: Evaluation of a NAM-based toolbox approach” (Toxicological Sciences, 2024)
Read-outs that look alike come from different tables or passages of the source.

Columns and labels:
[1] = target: T1, Retinoic Acid Receptor gamma, RARG (h) (Homo sapiens, UniProt P13631); experiment: IPP RARG binding (assay unavailable by end of study); settings: 10 uM; ligand/control 9-cis-Retinoic acid; ** assay was unavailable by the end of the study
T1 construct: purchased Eurofins Cerep (SafetyScreen44-based IPP panel)
T1 sequence (P13631 whole entry): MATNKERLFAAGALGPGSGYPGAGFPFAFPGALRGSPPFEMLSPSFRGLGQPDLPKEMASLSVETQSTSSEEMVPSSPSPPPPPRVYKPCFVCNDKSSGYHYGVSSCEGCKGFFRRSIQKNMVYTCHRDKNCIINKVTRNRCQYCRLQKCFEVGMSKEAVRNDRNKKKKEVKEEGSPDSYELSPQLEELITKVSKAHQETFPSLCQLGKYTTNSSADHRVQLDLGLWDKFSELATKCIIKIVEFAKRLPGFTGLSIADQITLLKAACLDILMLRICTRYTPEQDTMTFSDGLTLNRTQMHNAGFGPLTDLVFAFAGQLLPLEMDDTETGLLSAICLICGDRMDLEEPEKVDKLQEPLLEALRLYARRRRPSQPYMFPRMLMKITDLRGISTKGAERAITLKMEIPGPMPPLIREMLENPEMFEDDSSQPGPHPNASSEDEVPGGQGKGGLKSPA

CYP2B6 = settings: PBK level L3, Intrinsic Liver Clearance, ref [12], cited from earlier work
[2] = at the given pH, single value or median, cited from earlier work
[3] = target: Androgen receptor, AR (h) (Homo sapiens, UniProt P10275); settings: IPP screening at 10 uM; control testosterone
Chain of Androgen receptor, AR (h) (P10275 whole entry): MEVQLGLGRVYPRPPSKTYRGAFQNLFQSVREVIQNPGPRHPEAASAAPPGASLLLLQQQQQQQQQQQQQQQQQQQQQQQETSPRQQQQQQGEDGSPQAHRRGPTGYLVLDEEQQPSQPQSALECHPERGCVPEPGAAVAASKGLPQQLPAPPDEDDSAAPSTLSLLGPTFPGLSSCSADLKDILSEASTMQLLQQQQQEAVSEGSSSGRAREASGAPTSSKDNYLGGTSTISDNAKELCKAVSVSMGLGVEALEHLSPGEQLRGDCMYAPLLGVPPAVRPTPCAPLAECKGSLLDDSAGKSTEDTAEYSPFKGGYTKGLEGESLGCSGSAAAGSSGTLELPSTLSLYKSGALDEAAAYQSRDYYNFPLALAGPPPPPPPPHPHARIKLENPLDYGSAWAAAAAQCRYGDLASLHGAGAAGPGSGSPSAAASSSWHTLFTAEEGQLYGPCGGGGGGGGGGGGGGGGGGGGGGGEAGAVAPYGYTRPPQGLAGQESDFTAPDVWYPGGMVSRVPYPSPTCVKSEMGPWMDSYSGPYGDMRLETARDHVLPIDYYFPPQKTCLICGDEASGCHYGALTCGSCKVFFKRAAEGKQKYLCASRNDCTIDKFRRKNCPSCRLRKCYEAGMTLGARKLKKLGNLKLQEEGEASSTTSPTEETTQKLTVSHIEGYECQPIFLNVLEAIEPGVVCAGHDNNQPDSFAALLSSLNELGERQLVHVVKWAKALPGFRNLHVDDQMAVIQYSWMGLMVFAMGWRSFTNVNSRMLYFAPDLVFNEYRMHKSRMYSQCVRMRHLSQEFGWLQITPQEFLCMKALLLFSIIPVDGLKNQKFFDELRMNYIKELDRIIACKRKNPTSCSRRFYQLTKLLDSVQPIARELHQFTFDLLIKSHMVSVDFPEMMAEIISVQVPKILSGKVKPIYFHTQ

CYP2C19 = settings: PBK level L3, Intrinsic Liver Clearance, ref [12], cited from earlier work
human = human studies; ref [15-18]; cited from earlier work
[4] = PBK level L2; taken or scaled from references (median where several); ref [6],[7],[10],[19]; cited from earlier work
[5] = ref [15-18]; cited from earlier work
[6] = target: T2, Constitutive androstane receptor CAR, NR1I3 (h) (Homo sapiens, UniProt Q14994); type: biochemical
T2 sequence (Q14994 1-352): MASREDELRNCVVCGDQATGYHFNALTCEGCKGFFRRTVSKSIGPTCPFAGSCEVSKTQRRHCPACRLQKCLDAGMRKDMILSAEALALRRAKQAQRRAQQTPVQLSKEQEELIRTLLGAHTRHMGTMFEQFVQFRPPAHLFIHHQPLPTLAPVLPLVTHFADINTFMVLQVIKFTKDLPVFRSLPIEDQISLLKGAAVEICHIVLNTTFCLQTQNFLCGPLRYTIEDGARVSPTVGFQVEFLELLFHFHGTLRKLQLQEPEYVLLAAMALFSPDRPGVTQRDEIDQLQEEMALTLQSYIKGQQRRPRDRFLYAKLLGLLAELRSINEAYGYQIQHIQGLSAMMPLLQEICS

[7] = PBK model plasma Cmax estimate (Gastroplus 9.8; levels L1, L2, L3); set-up: species or system human; settings: therapeutic uses
[8] = target: T3, Estrogen receptor beta, ESR2 (h) (Homo sapiens, UniProt Q92731); experiment: IPP ESR2 coactivator recruitment (agonist); type: biochemical; settings: 100 uM, estriol, * denotes assay interference (2-Amino-6-chloro-4-nitrophenol, HC Red 3)
T3 construct: purchased Eurofins Cerep (SafetyScreen44-based IPP panel)
T3 sequence (Q92731 whole entry): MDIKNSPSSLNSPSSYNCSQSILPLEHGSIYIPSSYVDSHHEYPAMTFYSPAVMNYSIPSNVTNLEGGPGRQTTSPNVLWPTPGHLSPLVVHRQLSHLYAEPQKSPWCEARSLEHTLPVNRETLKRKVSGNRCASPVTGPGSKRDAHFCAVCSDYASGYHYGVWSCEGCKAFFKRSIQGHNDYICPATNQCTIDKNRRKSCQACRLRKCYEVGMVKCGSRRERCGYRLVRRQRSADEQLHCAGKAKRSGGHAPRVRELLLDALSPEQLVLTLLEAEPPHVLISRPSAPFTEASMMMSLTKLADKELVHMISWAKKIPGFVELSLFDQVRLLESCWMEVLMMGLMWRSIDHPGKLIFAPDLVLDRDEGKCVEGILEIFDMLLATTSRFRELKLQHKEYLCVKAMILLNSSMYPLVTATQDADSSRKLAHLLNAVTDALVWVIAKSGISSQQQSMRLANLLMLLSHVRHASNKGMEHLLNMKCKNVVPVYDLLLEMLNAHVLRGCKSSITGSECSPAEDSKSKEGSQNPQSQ

[9] = PBK input, levels L2/L3; ref [4]; cited from earlier work
[10] = target: T3, Estrogen receptor beta, ESR2 (h); experiment: IPP ESR2 coactivator recruitment (antagonist); type: biochemical; settings: 100 uM, estriol, * denotes assay interference (2-Amino-6-chloro-4-nitrophenol, HC Red 3)
[11] = hepatic intrinsic clearance (Clint); settings: PBK input
[12] = intestinal absorption (PBK input); type: in vitro ADME; settings: levels L2/L3, converted from [38]
[13] = target: T4, Vitamin D3 receptor, VDR (h) (Homo sapiens, UniProt P11473); type: biochemical; settings: 10 uM; antagonist; ligand calcitriol
T4 sequence (P11473 whole entry): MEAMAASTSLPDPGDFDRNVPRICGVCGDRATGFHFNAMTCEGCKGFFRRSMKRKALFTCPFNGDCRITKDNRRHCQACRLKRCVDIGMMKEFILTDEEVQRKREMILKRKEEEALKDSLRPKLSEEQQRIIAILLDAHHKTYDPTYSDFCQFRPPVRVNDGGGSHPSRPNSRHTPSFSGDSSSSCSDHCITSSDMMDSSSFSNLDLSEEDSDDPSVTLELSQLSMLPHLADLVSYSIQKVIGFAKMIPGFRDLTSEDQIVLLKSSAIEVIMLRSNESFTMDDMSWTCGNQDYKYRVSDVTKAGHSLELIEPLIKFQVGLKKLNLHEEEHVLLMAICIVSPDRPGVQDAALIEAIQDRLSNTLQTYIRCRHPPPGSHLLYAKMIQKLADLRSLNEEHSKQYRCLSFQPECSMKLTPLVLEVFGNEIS

[14] = target: T4, Vitamin D3 receptor, VDR (h); type: biochemical; settings: 10 uM; agonist; calcitriol for control

CC(C)(C)c1ccc(CCOc2ncnc3ccccc23)cc1 [Fenazaquin, 4-[2-(4-tert-Butylphenyl)ethoxy]quinazoline]
IPP screening %, Specific binding [1]: 35.0%

CCOP(=S)(OCC)Oc1nc(Cl)c(Cl)cc1Cl [Chlorpyrifos, O,O-Diethyl O-(3,5,6-trichloropyridin-2-yl) phosphorothioate]
Vmax CYP2B6 (CPFO) (CYP2B6): 418 uL/min/nmol CYP
Km (CYP2B6; read-out: km CYP2B6 (CPFO)): 0.12 µM
Aqueous Solubility ([2]; PBK level L2, ref [1],[4],[5],[10],[11],[17],[26]): 1.26 µg/mL
Aqueous Solubility ([2]; PBK level L3, ref [4],[5],[10],[11]): 1.26 µg/mL
Specific binding [3]: 5.8%
Vmax CYP2C19 (TCP) (CYP2C19): 2296 uL/min/mol CYP
Km (CYP2C19; read-out: km CYP2C19 (TCP)): 1.09 µM
NOAEL (human): 0.1 mg/kg bw/day
Intrinsic Liver Clearance [4]: 131.95 L/h
oral reference dose [5]: 0.01 mg/kg bw/day
IPP screening %, Coactivator recruitment [6]: -5.1%

CC1(C)O[C@@H]2[C@@H](CO[C@@]3(COS(N)(=O)=O)OC(C)(C)O[C@@H]23)O1 [Topiramate, [(3aS,5aR,8aR,8bS)-2,2,7,7-Tetramethyltetrahydro-2H,3aH,7H-bis[1,3]dioxolo[4,5-b:4',5'-d]pyran-3a-yl]methyl sulfamate (non-preferred name)]
underprediction of the L3 result at L2 (Cmax) [7]: ≥ 5 fold
IPP screening %, Coactivator recruitment [8]: -2.0%
Fup [9]: 79.5%
IPP screening %, Coactivator recruitment [10]: -10.0%
Intrinsic Liver Clearance ([11]; level L2, scaled from [6] internal data (unpublished)): 15.02 L/h
Intrinsic Liver Clearance ([11]; level L3, optimised based on [39]): 0.874 L/h
Peff [12]: 3.75 cm/s x E-04

mixture of 2- and 3-tert-butyl-4-methoxyphenol [Butylated Hydroxyanisole]
IPP screening %, Coactivator recruitment [13]: 3.0%
IPP screening %, Coactivator recruitment [14]: -0.1%
